Measured values: patent publication US11254716B2, “Peptides for binding epidermal growth factor” (3M INNOVATIVE PROPERTIES COMPANY, priority 2016, dated 2022)
Where no end group is shown, it is not given here.

What was measured:
EGF [1] = molecular target: T1, EGF (Homo sapiens, UniProt P01133); assay: Dot blotting analysis of biotinylated peptide with membrane-spotted EGF; assay type: binding; design: Recombinant Human Epidermal Growth Factor (EGF); purchased Abcam plc, Cambridge, Mass; conditions: EGF 10 nM spotted; biotinylated peptide 10 ng/mL; Streptavidin-HRP, TMB
T1 sequence (P01133 971-1023 limits assumed): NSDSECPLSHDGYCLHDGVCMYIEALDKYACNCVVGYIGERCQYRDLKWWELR
Experimental: EGF (1 microliter of a 10 nM solution in PBS was spotted a nitrocellulose membrane (obtained from Thermo Fisher Scientific) and the membrane was dried in air for about 30 minutes. The membrane was then incubated in 15 mL of blocking buffer (3 wt. % BSA in PBS) for one hour at room temperature. The membrane was washed three times (15 minutes for each wash) with 15 mL portions of fresh PBST. The washed membrane was incubated with Biotinylated SEQ ID NO: 1 [10 mL of a 10 ng/mL solution in blocking buffer (3 wt. % BSA in PBS)] with gentle agitation for one hour. The membrane was again washed three times (15 minutes for each wash) with 15 mL portions of fresh PBST. The washed membrane was incubated with Streptavidin-HRP [1:5000 dilution in 10 mL of the blocking buffer (3 wt. % BSA in PBS)] for 30 minutes with gentle agitation. Following the incubation, the membrane was washed three times (15 minutes for each wash) with 15 mL portions of fresh PBST. The washed membrane was incubated with 10 mL of the development solution for horseradish peroxidase (TMB-Blotting Substrate Solution, Pierce-Fisher Scientific) with gentle agitation. The color development was stopped by adding water.

EGF [2] = molecular target: T1, EGF; assay: biochemical; conditions: binding affinity (KD) for EGF, CK-linker modified peptide immobilized on CM5 chip, Biacore 3000, 25° C., EGF 62.5-1000 nM, 1-to-1 Langmuir fit
Experimental: “Test Method A” refers to the following general surface plasmon resonance (SPR) binding assay. Target protein (e.g., EGF and tumor necrosis factor alpha (TNFα)) is immobilized at 25° C. and diluted peptides are injected for 3 min at a flow rate of 10 μl/min at 25° C.
The immobilization was performed at 25° C. using HBS-EP as the running buffer. The CM-dextran surfaces of the sensor chip flow cells were activated by a seven minute injection (20 microliters/minute) of freshly prepared 1:1 50 mM NHS: 200 mM EDC. […] The coupling step was followed by a seven minute injection (20 microliters/minute) of ethanolamine hydrochloride-NaOH (1M, pH 8.5) which deactivated residual reactive sites.
The kinetic analysis for EGF was performed at 25° C. The EGF was diluted in HBS-EP buffer and centrifuged at 14,000 rpm for five minutes at 4° C. Individual test samples of EGF at various concentrations (62.5, 125, 250, 500 and 1000 nM) were injected for three minutes at a flow rate of 10 microliters/minute. The surface was regenerated by injection of 10 microliters of glycine-HCl in water (20 mM, pH 2.5).
The data analysis was carried out using the BIA Evaluation Software Kit obtained from GE Healthcare Bio-Sciences Corporation. The assay data fitted 1-to-1 Langmuir using global curve fitting analysis.

TNF-α = molecular target: T2, TNF-α (Homo sapiens, UniProt P01375); assay: Surface plasmon resonance (SPR) binding assay (Test Method A), TNF-α; conditions: CK-linker modified peptide immobilized on CM5 chip, Biacore 3000, 25° C., TNF-α 62.5-1000 nM, 1-to-1 Langmuir fit; read-out: binding affinity (KD) for TNF-α
T2 construct: purchased Abcam plc, Cambridge, Mass
T2 sequence (P01375 77-233 limits assumed): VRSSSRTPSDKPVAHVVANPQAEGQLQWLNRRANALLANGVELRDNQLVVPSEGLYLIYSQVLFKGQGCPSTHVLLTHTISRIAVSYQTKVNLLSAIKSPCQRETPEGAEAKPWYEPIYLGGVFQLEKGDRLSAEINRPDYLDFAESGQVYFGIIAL

Substance | dot blot colour development at EGF application site (affinity for EGF) (EGF [1]) | Kd (EGF [2]) [µM] | Kd (TNF-α) [µM]
Biotinylated SEQ ID NO: 1: Biotinylated version of peptide SEQ ID NO: 1 (WFEWPYWEMNVPDVWN; also: biotinylated, site not given here) | A dark spot developed | – | –
Ac-WFEWPYWEMNVPDVWN-NH2 [SEQ ID NO: 1, WFEWPYWEMNVPDVWN] | – | 0.08 | 75
